Measurements taken from US9693556B2, “Herbicidal pyridazinone derivatives” (SYNGENTA LIMITED, priority 2011, dated 2017).

Legend:
Assay type in all cases: in vivo
[1] = system: Amaranthus retoflexus (AMARE); assay: Post-emergence herbicidal glasshouse test on Amaranthus retoflexus; conditions: post-emergence; 1000 g/h; evaluated after 13 days
Outline: (§1)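 Scoring scale: 5=80-100%, 4=60-79%, 3=40-59%, 2=20-39%, 1=0-19% damage, assessed on day 13. Compound sprayed at 1000 g/h on soil-grown plants (day 1 pre-, day 8 post-emergence) kept at 24/16 °C, 14 h light.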

[2] = system: Echinochloa crus-galli (ECHCG); assay: Post-emergence herbicidal glasshouse test on Echinochloa crus-galli; conditions: post-emergence; 1000 g/h; evaluated after 13 days
Outline: as §1

Setaria faberi (SETFA) [3] = assay: Pre-emergence herbicidal glasshouse test on Setaria faberi; conditions: pre-emergence; 1000 g/h; evaluated after 13 days
Outline: as §1

Solanum nigrum (SOLNI) [4] = assay: Pre-emergence herbicidal glasshouse test on Solanum nigrum; conditions: pre-emergence; 1000 g/h; evaluated after 13 days
Outline: as §1

[5] = system: Alopecurus myosuroides (ALOMY); assay: Post-emergence herbicidal glasshouse test on Alopecurus myosuroides; conditions: post-emergence; 1000 g/h; evaluated after 13 days
Outline: as §1

[6] = system: Amaranthus retoflexus (AMARE); assay: Pre-emergence herbicidal glasshouse test on Amaranthus retoflexus; conditions: pre-emergence; 1000 g/h; evaluated after 13 days
Outline: as §1

[7] = system: Alopecurus myosuroides (ALOMY); assay: Pre-emergence herbicidal glasshouse test on Alopecurus myosuroides; conditions: pre-emergence; 1000 g/h; evaluated after 13 days
Outline: as §1

[8] = system: Ipomoea hederacea (IPOHE); assay: Post-emergence herbicidal glasshouse test on Ipomoea hederacea; conditions: post-emergence; 1000 g/h; evaluated after 13 days
Outline: as §1

Solanum nigrum (SOLNI) [9] = assay: Post-emergence herbicidal glasshouse test on Solanum nigrum; conditions: post-emergence; 1000 g/h; evaluated after 13 days
Outline: as §1

[10] = system: Echinochloa crus-galli (ECHCG); assay: Pre-emergence herbicidal glasshouse test on Echinochloa crus-galli; conditions: pre-emergence; 1000 g/h; evaluated after 13 days
Outline: as §1

Setaria faberi (SETFA) [11] = assay: Post-emergence herbicidal glasshouse test on Setaria faberi; conditions: post-emergence; 1000 g/h; evaluated after 13 days
Outline: as §1

[12] = system: Ipomoea hederacea (IPOHE); assay: Pre-emergence herbicidal glasshouse test on Ipomoea hederacea; conditions: pre-emergence; 1000 g/h; evaluated after 13 days
Outline: as §1

## CS(=O)(=O)c1cc(Cl)ccc1-c1cnn(C2CC2)c(=O)c1O [Compound 2.014]
[1]
  POST Application AMARE herbicidal damage (five point scale): 5 (5=80-100% damage)
[2]
  POST Application ECHCG herbicidal damage (five point scale): 5 (5=80-100% damage)
Setaria faberi (SETFA) [3]
  PRE Application SETFA herbicidal damage (five point scale): 5 (5=80-100% damage)
Solanum nigrum (SOLNI) [4]
  PRE Application SOLNI herbicidal damage (five point scale): 5 (5=80-100% damage)
[5]
  POST Application ALOMY herbicidal damage (five point scale): 5 (5=80-100% damage)
[6]
  PRE Application AMARE herbicidal damage (five point scale): 5 (5=80-100% damage)
[7]
  PRE Application ALOMY herbicidal damage (five point scale): 5 (5=80-100% damage)
[8]
  POST Application IPOHE herbicidal damage (five point scale): 5 (5=80-100% damage)
Solanum nigrum (SOLNI) [9]
  POST Application SOLNI herbicidal damage (five point scale): 5 (5=80-100% damage)
[10]
  PRE Application ECHCG herbicidal damage (five point scale): 5 (5=80-100% damage)
Setaria faberi (SETFA) [11]
  POST Application SETFA herbicidal damage (five point scale): 5 (5=80-100% damage)
[12]
  PRE Application IPOHE herbicidal damage (five point scale): 5 (5=80-100% damage)

## Cn1ncc(-c2ccc(C(F)(F)F)n(C)c2=O)c(O)c1=O [Compound 9.010]
[1]
  POST Application AMARE herbicidal damage (five point scale): 5 (5=80-100% damage)
[2]
  POST Application ECHCG herbicidal damage (five point scale): 4 (4=60-79% damage)
Setaria faberi (SETFA) [3]
  PRE Application SETFA herbicidal damage (five point scale): 1 (1=0-19% damage)
Solanum nigrum (SOLNI) [4]
  PRE Application SOLNI herbicidal damage (five point scale): 1 (1=0-19% damage)
[5]
  POST Application ALOMY herbicidal damage (five point scale): 2 (2=20-39% damage)
[6]
  PRE Application AMARE herbicidal damage (five point scale): 5 (5=80-100% damage)
[7]
  PRE Application ALOMY herbicidal damage (five point scale): 1 (1=0-19% damage)
[8]
  POST Application IPOHE herbicidal damage (five point scale): 4 (4=60-79% damage)
Solanum nigrum (SOLNI) [9]
  POST Application SOLNI herbicidal damage (five point scale): 5 (5=80-100% damage)
[10]
  PRE Application ECHCG herbicidal damage (five point scale): 5 (5=80-100% damage)
Setaria faberi (SETFA) [11]
  POST Application SETFA herbicidal damage (five point scale): 2 (2=20-39% damage)
[12]
  PRE Application IPOHE herbicidal damage (five point scale): 1 (1=0-19% damage)

## Cn1ncc(-c2ccc(S(C)(=O)=O)c(Cl)c2Cl)c(O)c1=O [Compound 1.050]
[1]
  POST Application AMARE herbicidal damage (five point scale): 5 (5=80-100% damage)
[2]
  POST Application ECHCG herbicidal damage (five point scale): 5 (5=80-100% damage)
Setaria faberi (SETFA) [3]
  PRE Application SETFA herbicidal damage (five point scale): 2 (2=20-39% damage)
Solanum nigrum (SOLNI) [4]
  PRE Application SOLNI herbicidal damage (five point scale): 3 (3=40-59% damage)
[5]
  POST Application ALOMY herbicidal damage (five point scale): 2 (2=20-39% damage)
[6]
  PRE Application AMARE herbicidal damage (five point scale): 5 (5=80-100% damage)
[7]
  PRE Application ALOMY herbicidal damage (five point scale): 1 (1=0-19% damage)
[8]
  POST Application IPOHE herbicidal damage (five point scale): 5 (5=80-100% damage)
Solanum nigrum (SOLNI) [9]
  POST Application SOLNI herbicidal damage (five point scale): 5 (5=80-100% damage)
[10]
  PRE Application ECHCG herbicidal damage (five point scale): 5 (5=80-100% damage)
Setaria faberi (SETFA) [11]
  POST Application SETFA herbicidal damage (five point scale): 4 (4=60-79% damage)
[12]
  PRE Application IPOHE herbicidal damage (five point scale): 1 (1=0-19% damage)

## Cc1cc(Cl)ccc1-c1c(C(F)(F)F)ccn(-c2cnn(C)c(=O)c2O)c1=O [Compound 7.038]
[1]
  POST Application AMARE herbicidal damage (five point scale): 5 (5=80-100% damage)
[2]
  POST Application ECHCG herbicidal damage (five point scale): 5 (5=80-100% damage)
Setaria faberi (SETFA) [3]
  PRE Application SETFA herbicidal damage (five point scale): 3 (3=40-59% damage)
Solanum nigrum (SOLNI) [4]
  PRE Application SOLNI herbicidal damage (five point scale): 5 (5=80-100% damage)
[5]
  POST Application ALOMY herbicidal damage (five point scale): 5 (5=80-100% damage)
[6]
  PRE Application AMARE herbicidal damage (five point scale): 5 (5=80-100% damage)
[7]
  PRE Application ALOMY herbicidal damage (five point scale): 5 (5=80-100% damage)
[8]
  POST Application IPOHE herbicidal damage (five point scale): 5 (5=80-100% damage)
Solanum nigrum (SOLNI) [9]
  POST Application SOLNI herbicidal damage (five point scale): 5 (5=80-100% damage)
[10]
  PRE Application ECHCG herbicidal damage (five point scale): 5 (5=80-100% damage)
Setaria faberi (SETFA) [11]
  POST Application SETFA herbicidal damage (five point scale): 3 (3=40-59% damage)
[12]
  PRE Application IPOHE herbicidal damage (five point scale): 4 (4=60-79% damage)

## Cc1c(-c2cnn(C(C)(C)C)c(=O)c2O)ccc(S(C)(=O)=O)c1C1=NOCC1 [Compound 1.131]
[1]
  POST Application AMARE herbicidal damage (five point scale): 5 (5=80-100% damage)
[2]
  POST Application ECHCG herbicidal damage (five point scale): 5 (5=80-100% damage)
Setaria faberi (SETFA) [3]
  PRE Application SETFA herbicidal damage (five point scale): 1 (1=0-19% damage)
Solanum nigrum (SOLNI) [4]
  PRE Application SOLNI herbicidal damage (five point scale): 4 (4=60-79% damage)
[5]
  POST Application ALOMY herbicidal damage (five point scale): 4 (4=60-79% damage)
[6]
  PRE Application AMARE herbicidal damage (five point scale): 3 (3=40-59% damage)
[7]
  PRE Application ALOMY herbicidal damage (five point scale): 1 (1=0-19% damage)
[8]
  POST Application IPOHE herbicidal damage (five point scale): 5 (5=80-100% damage)
Solanum nigrum (SOLNI) [9]
  POST Application SOLNI herbicidal damage (five point scale): 5 (5=80-100% damage)
[10]
  PRE Application ECHCG herbicidal damage (five point scale): 1 (1=0-19% damage)
Setaria faberi (SETFA) [11]
  POST Application SETFA herbicidal damage (five point scale): 4 (4=60-79% damage)
[12]
  PRE Application IPOHE herbicidal damage (five point scale): 1 (1=0-19% damage)

## Cn1ncc(-c2cccnc2OCC(F)F)c(O)c1=O [Compound 4.011]
[1]
  POST Application AMARE herbicidal damage (five point scale): 4 (4=60-79% damage)
[2]
  POST Application ECHCG herbicidal damage (five point scale): 1 (1=0-19% damage)
Setaria faberi (SETFA) [3]
  PRE Application SETFA herbicidal damage (five point scale): 1 (1=0-19% damage)
Solanum nigrum (SOLNI) [4]
  PRE Application SOLNI herbicidal damage (five point scale): 1 (1=0-19% damage)
[5]
  POST Application ALOMY herbicidal damage (five point scale): 1 (1=0-19% damage)
[6]
  PRE Application AMARE herbicidal damage (five point scale): 1 (1=0-19% damage)
[7]
  PRE Application ALOMY herbicidal damage (five point scale): 1 (1=0-19% damage)
[8]
  POST Application IPOHE herbicidal damage (five point scale): 3 (3=40-59% damage)
Solanum nigrum (SOLNI) [9]
  POST Application SOLNI herbicidal damage (five point scale): 5 (5=80-100% damage)
[10]
  PRE Application ECHCG herbicidal damage (five point scale): 1 (1=0-19% damage)
Setaria faberi (SETFA) [11]
  POST Application SETFA herbicidal damage (five point scale): 1 (1=0-19% damage)
[12]
  PRE Application IPOHE herbicidal damage (five point scale): 1 (1=0-19% damage)

## Cn1ncc(-c2ccc(C#N)cc2S(C)(=O)=O)c(O)c1=O [Compound 1.141]
[1]
  POST Application AMARE herbicidal damage (five point scale): 5 (5=80-100% damage)
[2]
  POST Application ECHCG herbicidal damage (five point scale): 5 (5=80-100% damage)
Setaria faberi (SETFA) [3]
  PRE Application SETFA herbicidal damage (five point scale): 5 (5=80-100% damage)
Solanum nigrum (SOLNI) [4]
  PRE Application SOLNI herbicidal damage (five point scale): 5 (5=80-100% damage)
[5]
  POST Application ALOMY herbicidal damage (five point scale): 5 (5=80-100% damage)
[6]
  PRE Application AMARE herbicidal damage (five point scale): 5 (5=80-100% damage)
[7]
  PRE Application ALOMY herbicidal damage (five point scale): 5 (5=80-100% damage)
[8]
  POST Application IPOHE herbicidal damage (five point scale): 5 (5=80-100% damage)
Solanum nigrum (SOLNI) [9]
  POST Application SOLNI herbicidal damage (five point scale): 5 (5=80-100% damage)
[10]
  PRE Application ECHCG herbicidal damage (five point scale): 5 (5=80-100% damage)
Setaria faberi (SETFA) [11]
  POST Application SETFA herbicidal damage (five point scale): 5 (5=80-100% damage)
[12]
  PRE Application IPOHE herbicidal damage (five point scale): 5 (5=80-100% damage)

## Cn1ncc(-c2ccc(C(F)(F)F)nc2S(C)(=O)=O)c(O)c1=O [Compound 4.003]
[1]
  POST Application AMARE herbicidal damage (five point scale): 5 (5=80-100% damage)
[2]
  POST Application ECHCG herbicidal damage (five point scale): 5 (5=80-100% damage)
Setaria faberi (SETFA) [3]
  PRE Application SETFA herbicidal damage (five point scale): 5 (5=80-100% damage)
Solanum nigrum (SOLNI) [4]
  PRE Application SOLNI herbicidal damage (five point scale): 5 (5=80-100% damage)
[5]
  POST Application ALOMY herbicidal damage (five point scale): 5 (5=80-100% damage)
[6]
  PRE Application AMARE herbicidal damage (five point scale): 5 (5=80-100% damage)
[7]
  PRE Application ALOMY herbicidal damage (five point scale): 5 (5=80-100% damage)
[8]
  POST Application IPOHE herbicidal damage (five point scale): 5 (5=80-100% damage)
Solanum nigrum (SOLNI) [9]
  POST Application SOLNI herbicidal damage (five point scale): 5 (5=80-100% damage)
[10]
  PRE Application ECHCG herbicidal damage (five point scale): 5 (5=80-100% damage)
Setaria faberi (SETFA) [11]
  POST Application SETFA herbicidal damage (five point scale): 5 (5=80-100% damage)
[12]
  PRE Application IPOHE herbicidal damage (five point scale): 5 (5=80-100% damage)

## C=C(C)c1nn(C)c(=O)c(O)c1-c1ccc(S(C)(=O)=O)c(C2=NOCC2)c1C [Compound 2.023]
[1]
  POST Application AMARE herbicidal damage (five point scale): 5 (5=80-100% damage)
[2]
  POST Application ECHCG herbicidal damage (five point scale): 5 (5=80-100% damage)
Setaria faberi (SETFA) [3]
  PRE Application SETFA herbicidal damage (five point scale): 1 (1=0-19% damage)
Solanum nigrum (SOLNI) [4]
  PRE Application SOLNI herbicidal damage (five point scale): 5 (5=80-100% damage)
[5]
  POST Application ALOMY herbicidal damage (five point scale): 5 (5=80-100% damage)
[6]
  PRE Application AMARE herbicidal damage (five point scale): 5 (5=80-100% damage)
[7]
  PRE Application ALOMY herbicidal damage (five point scale): 5 (5=80-100% damage)
[8]
  POST Application IPOHE herbicidal damage (five point scale): 5 (5=80-100% damage)
Solanum nigrum (SOLNI) [9]
  POST Application SOLNI herbicidal damage (five point scale): 5 (5=80-100% damage)
[10]
  PRE Application ECHCG herbicidal damage (five point scale): 5 (5=80-100% damage)
Setaria faberi (SETFA) [11]
  POST Application SETFA herbicidal damage (five point scale): 5 (5=80-100% damage)
[12]
  PRE Application IPOHE herbicidal damage (five point scale): 4 (4=60-79% damage)
